Assay results reported in patent US20090016990A1, “Antimicrobial Compositions” (priority 2007, published 2009).

Key:
[1] = system: Pseudomonas aeruginosa ATCC 27853; experiment: MBEC assay, biofilm inhibition (prevention of biofilm formation), MBEC bioFILM PA panel; format: cell-based; design: MBEC-Biofilm Inhibition, Without compound 9 / MBEC-Biofilm Inhibition, Without compound 6 / MBEC-Biofilm Inhibition, Without compound 2 / MBEC-Biofilm Inhibition, Without compound 7 / MBEC-Biofilm Inhibition, With 0.01% compound 7 in 5% EtOH/PBS / MBEC-Biofilm Inhibition, without salt of compound 2 / MBEC-Biofilm Inhibition, with 0.1% salt of compound 2 / MBEC-Biofilm Inhibition, without salt of compound 6: unit not given here; conditions: for MBEC-Biofilm Inhibition, without salt of compound 2 / MBEC-Biofilm Inhibition, with 0.1% salt of compound 2: Table 9; for MBEC-Biofilm Inhibition, without salt of compound 2 / MBEC-Biofilm Inhibition, without salt of compound 6: antibiotic or antibiotic combination alone; for MBEC-Biofilm Inhibition, without salt of compound 2 / MBEC-Biofilm Inhibition, with 0.1% salt of compound 2 / MBEC-Biofilm Inhibition, without salt of compound 6 / MBEC-Biofilm Inhibition, with 0.1% salt of compound 6: value per component; for MBEC-Biofilm Inhibition, without salt of compound 2: separated by /; for MBEC-Biofilm Inhibition, with 0.1% salt of compound 2: antibiotic or combination plus 0.1% salt of compound 2; for MBEC-Biofilm Inhibition, without salt of compound 6 / MBEC-Biofilm Inhibition, with 0.1% salt of compound 6: Table 10; for MBEC-Biofilm Inhibition, with 0.1% salt of compound 6: antibiotic or combination plus 0.1% salt of compound 6; for MBEC-Biofilm Inhibition, Without compound 1 / MBEC-Biofilm Inhibition, Without compound 2 / MBEC-Biofilm Inhibition, Without compound 3 / MBEC-Biofilm Inhibition, Without compound 6 / MBEC-Biofilm Inhibition, Without compound 7 / MBEC-Biofilm Inhibition, Without compound 9: antibiotic alone
[2] = system: Pseudomonas aeruginosa ATCC 27853; experiment: MIC assay, planktonic growth, MBEC bioFILM PA panel
Description: The MBEC bioFILM PA panel is designed for use in determining antimicrobial agent susceptibility of both planktonic and biofilm Pseudomonas aeruginosa.
From this test, the minimum antibiotic concentration—in the presence and absence of a compound of the present invention—that will inhibit bacterial growth in solution (“MIC Assay”) is determined. The minimum antibiotic concentration—in the presence and absence of a compound of the present invention—that will prevent attachment of bacteria to a test surface (“MBEC Assay”) is determined. Approximately 1,000,000-10,000,000 bacteria attach in the absence of antibiotics; lesser numbers attach in the presence of antibiotics.
MBEC bioFilm PA panel—Panel wells are inoculated with planktonic Pseudomonas aeruginosa using a 95 peg inoculation lid. Panels and pegged lids are then incubated at 35° C. for 18 h. Planktonic susceptibility and resistance is determined by measuring inhibition and growth in the presence of antimicrobial agents after incubation. Biofilm susceptibility and resistance is determined by measuring inhibition and growth after peg sonication, biofilm bacteria recovery, then incubation for additional 18-24 h at 35° C.

[3] = system: Pseudomonas aeruginosa ATCC 27853; experiment: MBEC assay, biofilm elimination, MBEC bioFILM PA panel; format: cell-based; design: MBEC-Biofilm Elimination, Without compound 2 / MBEC-Biofilm Elimination, With 0.01% compound 2 in 5% EtOH/PBS / MBEC-Biofilm Elimination, Without compound 7 / MBEC-Biofilm Elimination, With 0.01% compound 7 in 5% EtOH/PBS / MBEC-Biofilm Elimination, Without compound 1 / MBEC-Biofilm Elimination, With 0.01% compound 1 in 5% EtOH/PBS / MBEC-Biofilm Elimination, without salt of compound 2 / MBEC-Biofilm Elimination, with 0.1% salt of compound 2: unit not given here; conditions: for MBEC-Biofilm Elimination, without salt of compound 2 / MBEC-Biofilm Elimination, with 0.1% salt of compound 2: Table 9; for MBEC-Biofilm Elimination, without salt of compound 2 / MBEC-Biofilm Elimination, without salt of compound 6: antibiotic or antibiotic combination alone; for MBEC-Biofilm Elimination, without salt of compound 2 / MBEC-Biofilm Elimination, with 0.1% salt of compound 2 / MBEC-Biofilm Elimination, without salt of compound 6 / MBEC-Biofilm Elimination, with 0.1% salt of compound 6: value per component; for MBEC-Biofilm Elimination, with 0.1% salt of compound 2: antibiotic or combination plus 0.1% salt of compound 2; for MBEC-Biofilm Elimination, without salt of compound 6 / MBEC-Biofilm Elimination, with 0.1% salt of compound 6: Table 10; for MBEC-Biofilm Elimination, with 0.1% salt of compound 6: antibiotic or combination plus 0.1% salt of compound 6; for MBEC-Biofilm Elimination, Without compound 1 / MBEC-Biofilm Elimination, Without compound 2 / MBEC-Biofilm Elimination, Without compound 3 / MBEC-Biofilm Elimination, Without compound 6 / MBEC-Biofilm Elimination, Without compound 7 / MBEC-Biofilm Elimination, Without compound 9: antibiotic alone

Compound | MBEC-Biofilm Inhibition, without salt of compound 2 [1] | MBEC-Biofilm Inhibition, with 0.1% salt of compound 2 [1] | MBEC-Biofilm Inhibition, without salt of compound 6 [1] | MBEC-Biofilm Inhibition, with 0.1% salt of compound 6 [1] | MBEC-Biofilm Inhibition, Without compound 1 [1] | MBEC-Biofilm Inhibition, Without compound 2 [1] | MBEC-Biofilm Inhibition, Without compound 3 [1] | MBEC-Biofilm Inhibition, Without compound 6 [1] | MBEC-Biofilm Inhibition, Without compound 7 [1] | MBEC-Biofilm Inhibition, Without compound 9 [1] | MBEC-Biofilm Inhibition, With 0.01% compound 1 in 5% EtOH/PBS [1] | MBEC-Biofilm Inhibition, With 0.01% compound 2 in 5% EtOH/PBS [1] | MBEC-Biofilm Inhibition, With 0.01% compound 7 in 5% EtOH/PBS [1] | MBEC-Biofilm Inhibition, With 0.05% compound 3 in 5% EtOH/PBS [1] | MBEC-Biofilm Inhibition, With 0.05% compound 6 in 5% EtOH/PBS [1] | MBEC-Biofilm Inhibition, With 0.1% w/v compound 9 in PBS [1] | MBEC-Biofilm Elimination, without salt of compound 2 [3] | MBEC-Biofilm Elimination, with 0.1% salt of compound 2 [3] | MBEC-Biofilm Elimination, without salt of compound 6 [3] | MBEC-Biofilm Elimination, with 0.1% salt of compound 6 [3] | also measured
CCC(C)(C)c1ccc(OS(=O)(=O)Cl)cc1 [compound 7] | – | – | – | – | – | – | – | – | – | – | – | – | – | – | – | – | – | – | – | – | number of the 47 antibiotics or antibiotic combinations enhanced in activity ([1]; of 47): 10; Bacterial attachment to the test surfaces in the presence of the compound ([1]; with antibiotics): completely inhibited at lower concentrations of antibiotics; MIC values for several antibiotics in the presence of the compound ([2]; compound at 0.01%): reduced
CC(C)(C)c1ccc(OS(=O)(=O)Cl)cc1 [compound 9] | – | – | – | – | – | – | – | – | – | – | – | – | – | – | – | – | – | – | – | – | MIC values of antibiotics in the presence of the compound ([2]; antibiotics become less effective): increased
colistin [CT] | >1 | >1 | >1 | >1 | >1 | >1 | >1 | >1 | >1 | >1 | >1 | >1 | >1 | >1 | >1 | >1 | >1 | >1 | >1 | >1 | MBEC-Biofilm Elimination, Without compound 1 [3]: >1; MBEC-Biofilm Elimination, Without compound 2 [3]: >1; MBEC-Biofilm Elimination, Without compound 3 [3]: >1; MBEC-Biofilm Elimination, Without compound 6 [3]: >1; MBEC-Biofilm Elimination, Without compound 7 [3]: >1; MBEC-Biofilm Elimination, Without compound 9 [3]: >1; MBEC-Biofilm Elimination, With 0.01% compound 1 in 5% EtOH/PBS [3]: 1; MBEC-Biofilm Elimination, With 0.01% compound 2 in 5% EtOH/PBS [3]: 0.5; MBEC-Biofilm Elimination, With 0.01% compound 7 in 5% EtOH/PBS [3]: 1; MBEC-Biofilm Elimination, With 0.05% compound 3 in 5% EtOH/PBS [3]: >1; MBEC-Biofilm Elimination, With 0.05% compound 6 in 5% EtOH/PBS [3]: >1; MBEC-Biofilm Elimination, With 0.1% w/v compound 9 in PBS [3]: >1
gentamicin [GM] | >2 | >2 | >2 | >2 | >2 | >2 | >2 | >2 | >2 | >2 | >2 | >2 | >2 | >2 | >2 | >2 | >2 | >2 | >2 | >2 | MBEC-Biofilm Elimination, Without compound 1 [3]: >2; MBEC-Biofilm Elimination, Without compound 2 [3]: >2; MBEC-Biofilm Elimination, Without compound 3 [3]: >2; MBEC-Biofilm Elimination, Without compound 6 [3]: >2; MBEC-Biofilm Elimination, Without compound 7 [3]: >2; MBEC-Biofilm Elimination, Without compound 9 [3]: 2; MBEC-Biofilm Elimination, With 0.01% compound 1 in 5% EtOH/PBS [3]: 2; MBEC-Biofilm Elimination, With 0.01% compound 2 in 5% EtOH/PBS [3]: >2; MBEC-Biofilm Elimination, With 0.01% compound 7 in 5% EtOH/PBS [3]: 2; MBEC-Biofilm Elimination, With 0.05% compound 3 in 5% EtOH/PBS [3]: >2; MBEC-Biofilm Elimination, With 0.05% compound 6 in 5% EtOH/PBS [3]: >2; MBEC-Biofilm Elimination, With 0.1% w/v compound 9 in PBS [3]: >2
